# Source: article PMC6696278 (International Journal of Molecular Sciences, 2019)
# Legend:
# Format in all cases: binding
# human galectin-1 = target: T1, human galectin-1 (Homo sapiens, UniProt P09382); experiment: competitive fluorescence polarization assay, galectin-1; settings: for Kd: average and SEM of 4–8 single-triple point measurements, PBS
# T1 construct: made in house
# Excerpt: (§1) Human galectin-1 [25], galectin-2 [26], galectin-3 [27], galectin-4N [19], galectin-4C [19], galectin-8N [28], galectin-8C [28], galectin-9N [29], and galectin-9C [30], were expressed and purified as described earlier. Human galectin-7 was expressed using a pET3c plasmid in E. coli BL21-star. The plasmid containing expression optimized DNA encoding the full human galectin-7 sequence (NCBI Reference Sequence: NP_002298.1) was obtained from GenScript (Piscataway, NJ, USA). […] Lactose was removed by chromatography on a PD-10 column (Amersham Biosciences) with repeated ultrafiltration with Centriprep (Amicon).
# (§2) Fluorescence polarization experiments were carried out either with a POLARStar plate reader and FLUOstar Galaxy software or with a PheraStarFS plate reader and PHERAstar Mars version 2.10 R3 software (BMG, Offenburg, Germany). The dissociation constant (Kd) values were determined in PBS as described earlier. Specific conditions for galectin-1, 2, 3, 4N, 4C, 8N, 8C, 9N, and 9C were kept as reported. Experiments were performed at room temperature with human galectin-7 at 5 µM and the fluorescent probe β-D-galactopyranosyl-(1–4)-2-acetamido-2-deoxy-β-d-glucopyranosyl-(1–3)-β-d-galactopyranosyl-(1–4)-(N1-fluorescein-5-yl-carbonylaminomethylcarbonyl)-β-D-glucopyranosylamine at 0.02 µM. All the compounds in Table 1 except 32 were dissolved in a neat DMSO at 100 mM and diluted in PBS to three to six different concentrations to be tested in duplicate.
# [1] = target: T2, human galectin-4N (N-terminal domain) (Homo sapiens, UniProt P56470); experiment: competitive fluorescence polarization assay, galectin-4N; settings: for Kd: N-terminal domain, average and SEM, PBS
# T2 construct: 4N (N-terminal domain) 4C (C-terminal domain); made in house
# T2 sequence (P56470 19-150 limits assumed): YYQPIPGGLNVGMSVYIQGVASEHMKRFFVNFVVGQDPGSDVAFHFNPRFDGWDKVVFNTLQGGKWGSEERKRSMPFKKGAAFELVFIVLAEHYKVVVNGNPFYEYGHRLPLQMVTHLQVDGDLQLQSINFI
# Excerpt: (§3) Human galectin-1 [25], galectin-2 [26], galectin-3 [27], galectin-4N [19], galectin-4C [19], galectin-8N [28], galectin-8C [28], galectin-9N [29], and galectin-9C [30], were expressed and purified as described earlier. Human galectin-7 was expressed using a pET3c plasmid in E. coli BL21-star. The plasmid containing expression optimized DNA encoding the full human galectin-7 sequence (NCBI Reference Sequence: NP_002298.1) was obtained from GenScript (Piscataway, NJ, USA). Bacterial culture and induction, and galectin purification was essential as described for galectin-3 expressed with the same vector [27]; a typical yield was 1.5–2 mg/L culture. Lactose was removed by chromatography on a PD-10 column (Amersham Biosciences) with repeated ultrafiltration with Centriprep (Amicon).
# as §2
# [2] = target: T3, human galectin-8N (N-terminal domain) (Homo sapiens, UniProt O00214); experiment: competitive fluorescence polarization assay, galectin-8N; settings: PBS
# T3 construct: 4N (N-terminal domain) 4C (C-terminal domain), 7, 8N, 8C, 9N, and 9C; made in house
# T3 sequence (O00214 19-152 limits assumed): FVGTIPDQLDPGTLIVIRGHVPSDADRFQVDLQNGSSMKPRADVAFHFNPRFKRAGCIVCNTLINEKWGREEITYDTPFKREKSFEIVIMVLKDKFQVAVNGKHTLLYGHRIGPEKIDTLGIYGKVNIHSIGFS
# Excerpt: as §1, §2
# [3] = target: T4, human galectin-9C (C-terminal domain) (Homo sapiens, UniProt O00182); experiment: competitive fluorescence polarization assay, galectin-9C; settings: PBS
# T4 construct: 4N (N-terminal domain) 4C (C-terminal domain), 7, 8N, 8C, 9N, and 9C; made in house
# Excerpt: as §1, §2
# [4] = target: T5, human galectin-8C (C-terminal domain) (Homo sapiens, UniProt O00214); experiment: competitive fluorescence polarization assay, galectin-8C; settings: PBS
# T5 construct: 4N (N-terminal domain) 4C (C-terminal domain), 7, 8N, 8C, 9N, and 9C; made in house
# T5 sequence (O00214 187-317 limits assumed): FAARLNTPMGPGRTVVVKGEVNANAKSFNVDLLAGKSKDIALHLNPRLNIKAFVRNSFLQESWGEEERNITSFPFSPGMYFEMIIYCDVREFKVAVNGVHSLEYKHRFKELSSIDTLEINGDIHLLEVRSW
# Excerpt: as §1, §2
# human galectin-7 = target: T6, human galectin-7 (Homo sapiens, UniProt P47929); experiment: competitive fluorescence polarization assay, galectin-7; settings: average and SEM, PBS, room temperature, galectin-7 at 5 µM, probe 0.02 µM
# T6 construct: made in house; host or cells: E. coli BL21-star, pET3c plasmid (DNA from GenScript)
# Excerpt: as §3, §2
# [5] = target: T7, human galectin-9N (N-terminal domain) (Homo sapiens, UniProt O00182); experiment: competitive fluorescence polarization assay, galectin-9N; settings: PBS
# T7 construct: 4N (N-terminal domain) 4C (C-terminal domain), 7, 8N, 8C, 9N, and 9C; made in house
# Excerpt: as §3, §2
# human galectin-3 = target: T8, human galectin-3 (Homo sapiens, UniProt P17931); experiment: competitive fluorescence polarization assay, galectin-3; settings: average and SEM, PBS
# T8 construct: made in house; host or cells: vector pET3c (the same vector as galectin-7)
# Excerpt: as §1, §2
# [6] = target: T9, human galectin-4C (C-terminal domain) (Homo sapiens, UniProt P56470); experiment: competitive fluorescence polarization assay, galectin-4C; settings: PBS
# T9 construct: 4N (N-terminal domain) 4C (C-terminal domain); made in house
# T9 sequence (P56470 194-323 limits assumed): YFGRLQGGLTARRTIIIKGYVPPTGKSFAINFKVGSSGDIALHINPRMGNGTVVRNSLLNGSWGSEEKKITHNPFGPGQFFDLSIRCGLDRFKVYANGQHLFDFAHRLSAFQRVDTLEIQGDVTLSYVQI
# Excerpt: as §1, §2
# human galectin-2 = target: T10, human galectin-2 (Homo sapiens, UniProt P05162); experiment: competitive fluorescence polarization assay, galectin-2; settings: average and SEM, PBS
# T10 construct: made in house
# T10 sequence (P05162 1-132): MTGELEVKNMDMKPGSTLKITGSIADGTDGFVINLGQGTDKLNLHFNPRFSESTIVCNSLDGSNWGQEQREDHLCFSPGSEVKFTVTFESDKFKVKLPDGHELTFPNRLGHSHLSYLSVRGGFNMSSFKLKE
# Excerpt: as §3, §2
# T4 sequence (O00182 227-355 limits assumed): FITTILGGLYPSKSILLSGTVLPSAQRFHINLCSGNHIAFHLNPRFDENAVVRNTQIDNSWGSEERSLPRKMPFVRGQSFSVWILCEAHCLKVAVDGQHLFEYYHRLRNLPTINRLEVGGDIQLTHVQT
# T7 sequence (O00182 17-148 limits assumed): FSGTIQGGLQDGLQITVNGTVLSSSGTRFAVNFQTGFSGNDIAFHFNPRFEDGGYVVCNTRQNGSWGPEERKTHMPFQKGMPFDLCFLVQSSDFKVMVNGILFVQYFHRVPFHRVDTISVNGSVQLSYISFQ
# T1 sequence (P09382 whole entry): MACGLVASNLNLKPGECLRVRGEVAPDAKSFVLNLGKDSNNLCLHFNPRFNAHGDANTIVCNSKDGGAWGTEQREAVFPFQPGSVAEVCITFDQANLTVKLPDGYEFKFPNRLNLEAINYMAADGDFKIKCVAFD
# T6 sequence (P47929 whole entry): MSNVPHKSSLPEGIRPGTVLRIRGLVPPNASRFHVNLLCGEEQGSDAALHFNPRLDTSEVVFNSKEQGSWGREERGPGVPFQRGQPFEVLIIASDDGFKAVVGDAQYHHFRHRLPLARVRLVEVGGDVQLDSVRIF
# T8 sequence (P17931 whole entry): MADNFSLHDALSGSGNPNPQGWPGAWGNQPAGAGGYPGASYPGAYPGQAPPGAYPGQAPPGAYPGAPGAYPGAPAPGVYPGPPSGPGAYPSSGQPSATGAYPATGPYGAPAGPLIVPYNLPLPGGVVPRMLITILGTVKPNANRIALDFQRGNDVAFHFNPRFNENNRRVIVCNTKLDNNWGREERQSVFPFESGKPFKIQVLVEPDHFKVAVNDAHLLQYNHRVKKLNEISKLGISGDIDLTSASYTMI
Compound,Kd (human galectin-1; Table 1) [mM],Kd ([1]; Table 1) [mM],"Kd ([2]; Table 1, average and SEM) [mM]","Kd ([3]; Table 1, average and SEM) [mM]","Kd ([4]; Table 1, average and SEM) [mM]",Kd (human galectin-7; Table 1) [mM],"Kd ([5]; Table 1, average and SEM) [mM]",Kd (human galectin-3; Table 1) [mM],"Kd ([6]; Table 1, average and SEM) [mM]",Kd (human galectin-2; Table 1) [mM],"Kd ([3]; Table 2, average and SEM) [mM]",Kd (human galectin-2; Table 2) [mM],"Kd ([5]; Table 2, average and SEM) [mM]",further results
"CO[C@@H]1O[C@H](CO)[C@H](O)[C@@H](CO)[C@H]1O [Compound 1a, Methyl 3-Deoxy-3-C-Hydroxymethyl-β-D-Gulopyranoside]",1.3 ± 0.15,> 4,> 4,> 4,3.7 ± 0.02,> 4,> 4,> 4,–,–,–,–,–,fold better affinity for galectin-1 than reference methyl β-D-galactopyranoside 32 (human galectin-1; ratio of Kd values): 7 fold
"CO[C@@H]1O[C@H](CO)[C@H](O)[C@H](CO)[C@H]1O [Compound 1b, Methyl 3-Deoxy-3-C-Hydroxymethyl-β-D-Galactopyranoside]",> 4,> 4,> 4,> 4,> 4,> 4,> 4,> 4,> 4,> 4,–,–,–,binding to galectin-4N (in words) [1]: weak binding
"CO[C@@H]1O[C@H](CO)[C@H](O)[C@H](COc2cccc(C(F)(F)F)c2)[C@H]1O [Compound 2, Methyl 3-Deoxy-3-C-(3-Trifluoromethylphenoxymethyl)-β-D-Galactopyranoside]",> 4,> 4,> 4,> 4,> 4,> 4,> 4,> 4,> 4,> 4,–,–,–,–
"COC[C@H]1[C@@H](O)[C@@H](CO)O[C@@H](OC)[C@@H]1O [Compound 3, Methyl 3-Deoxy-3-C-Methoxymethyl-β-D-Galactopyranoside]",> 4,–,> 4,–,> 4,–,–,> 4,–,–,–,–,–,–
"CO[C@@H]1O[C@H](CO)[C@H](O)[C@H](Cn2cc(-c3cccc(F)c3)nn2)[C@H]1O [Compound 4, Methyl 3-Deoxy-3-C-[4-(3-Fluorophenyl)-1H-1,2,3-Triazol-1-Ylmethyl]-β-D-Galactopyranoside]",> 4,> 4,> 4,> 4,> 4,> 4,> 4,> 4,> 4,> 4,–,–,–,–
"CO[C@@H]1O[C@H](CO)[C@H](O)[C@H](CNC(=O)Nc2cccc(F)c2)[C@H]1O [Compound 5, Methyl 3-Deoxy-3-C-(3-Fluorophenylureido)Methyl-β-D-Galactopyranoside]",> 4,> 4,> 4,> 4,> 4,> 4,> 4,> 4,> 4,> 4,–,–,–,–
"CO[C@@H]1O[C@H](CO)[C@H](O)[C@@H](CNS(=O)(=O)c2ccccc2)[C@H]1O [Compound 6, Methyl 3-Deoxy-3-C-(Phenylsufonamido)Methyl-β-D-Galactopyranoside]",> 10,> 4,> 4,> 4,> 4,> 4,–,> 4,> 4,–,–,–,–,–
"CO[C@@H]1O[C@H](CO)[C@H](O)[C@@H](CNP(=O)(Oc2ccccc2)Oc2ccccc2)[C@H]1O [Compound 8, Methyl 3-Deoxy-3-C-(Diphenylphosphonamidomethyl)-β-D-Galactopyranoside]",> 10,> 4,> 4,> 5,> 4,> 4,–,> 4,> 4,–,–,–,–,–
"CO[C@@H]1O[C@H](CO)[C@H](O)[C@@H](O)[C@H]1O [Compound 9, Methyl β-D-Gulopyranoside]",–,–,–,–,–,–,–,–,–,–,> 4,10 ± 1.5,> 4,Kd (human galectin-7; Table 2): > 4 mM
"CO[C@@H]1O[C@H](CO)[C@H](O)[C@@H](NC(=O)c2ccccc2)[C@H]1O [Compound 10, Methyl 3-Benzamido-3-Deoxy-β-D-Gulopyranoside]",–,–,–,–,–,–,–,–,–,–,> 4,> 4,> 4,"Kd (human galectin-1; Table 2): > 4 mM; binding to galectin-1 (in words) (human galectin-1; under the assay conditions): no binding; Kd ([6]; Table 2, average and SEM): > 4 mM; binding to galectin-4N (in words) [1]: improved binding; Kd ([1]; Table 2): 1.3 ± 0.2 mM; Kd ([2]; Table 2, average and SEM): > 4 mM; Kd ([4]; Table 2, average and SEM): > 4 mM; Kd (human galectin-3; Table 2): > 4 mM"

# Now from value to compound, other results behind:
Kd (human galectin-1; Table 1) [mM],Kd ([1]; Table 1) [mM],"Kd ([2]; Table 1, average and SEM) [mM]","Kd ([3]; Table 1, average and SEM) [mM]","Kd ([4]; Table 1, average and SEM) [mM]",Kd (human galectin-7; Table 1) [mM],"Kd ([5]; Table 1, average and SEM) [mM]",Kd (human galectin-3; Table 1) [mM],"Kd ([6]; Table 1, average and SEM) [mM]",Kd (human galectin-2; Table 1) [mM],"Kd ([3]; Table 2, average and SEM) [mM]",Kd (human galectin-2; Table 2) [mM],"Kd ([5]; Table 2, average and SEM) [mM]",Compound,further results
1.8 ± 0.15,> 4,> 4,> 4,> 4,> 4,–,> 4,> 4,> 4,–,–,–,"CO[C@@H]1O[C@H](CO)[C@H](O)[C@@H](CNC(=O)c2ccccc2)[C@H]1O [Compound 7a, Methyl 3-Deoxy-3-C-Benzamidomethyl-β-D-Gulopyranoside]",–
–,–,–,–,–,–,–,–,–,–,> 4,> 4,> 4,"CO[C@@H]1O[C@H](CO)[C@H](O)[C@@H](CNC(C)=O)[C@H]1O [Compound 7b, Methyl 3-Deoxy-3-C-Acetamidomethyl-β-D-Gulopyranoside]","Kd (human galectin-1; Table 2): 1.5 ± 0.08 mM; Kd ([6]; Table 2, average and SEM): > 4 mM; Kd ([1]; Table 2): 1.9 ± 0.05 mM; Kd ([2]; Table 2, average and SEM): > 4 mM; Kd ([4]; Table 2, average and SEM): 2.7 ± 0.5 mM; Kd (human galectin-7; Table 2): > 4 mM; Kd (human galectin-3; Table 2): > 4 mM"
–,–,–,–,–,–,–,–,–,–,> 4,> 4,> 4,"CO[C@@H]1O[C@H](CO)[C@H](O)[C@H](CNC(=O)c2ccccc2F)[C@H]1O [Compound 7c, Methyl 3-Deoxy-3-C-(2-Fluorobenzamidomethyl)-β-D-Galactopyranoside]","Kd (human galectin-1; Table 2): 1.9 ± 0.04 mM; Kd ([6]; Table 2, average and SEM): > 4 mM; Kd ([1]; Table 2): 2.2 ± 0.16 mM; Kd ([2]; Table 2, average and SEM): > 4 mM; Kd ([4]; Table 2, average and SEM): > 4 mM; Kd (human galectin-7; Table 2): > 4 mM; Kd (human galectin-3; Table 2): > 4 mM"
–,–,–,–,–,–,–,–,–,–,> 4,> 4,> 4,"CO[C@@H]1O[C@H](CO)[C@H](O)[C@H](CNC(=O)c2cccc(F)c2)[C@H]1O [Compound 7d, Methyl 3-Deoxy-3-C-(3-Fluorobenzamidomethyl)-β-D-Galactopyranoside]","Kd (human galectin-1; Table 2): 1.9 ± 0.4 mM; Kd ([6]; Table 2, average and SEM): > 4 mM; Kd ([1]; Table 2): > 4 mM; Kd ([2]; Table 2, average and SEM): > 4 mM; Kd ([4]; Table 2, average and SEM): > 4 mM; Kd (human galectin-7; Table 2): > 4 mM; Kd (human galectin-3; Table 2): > 4 mM"
